The nature of data set [1]: Cytotoxicity (CC50) in C8166 cells. The class given is cell-based. The note with it: human.
Experimental: (§1) The anti-HIV activity was determined by the “Guiding Principles of Anti HIV Drug Unclinical Pharmacodynamics” of SFDA which is tested by technology standard assay according to International Universal Standards and Methods. Where in CC50, EC50 were measured twice and took the average.
Data set [2] deals with HIV-1IIIB. The data set is described as follows: Anti-HIV activity in C8166 cells. To be noted: Human immunodeficiency virus 1; HIV-1IIIB, C8166 cells; read-out: EC50. It counts as cell-based.
Experimental: as §1
A short description of data set [3]: Cytotoxicity (CC50) in H9 cells. It counts as cell-based, human. The note with it: human, read-out: CC50.
Experimental: as §1
The test system of data set [4] is HIV-1IIIB. The data set is described as follows: Anti-HIV activity in H9 cells. It counts as cell-based. The note with it: H9 cells.
Experimental: as §1
The next data set concerns HIV-1A17. The data set is described as follows: microbe, parasite or virus in culture. The note with it: Human immunodeficiency virus 1.
A further data set concerns HIVKM018. The data set is described as follows: microbe, parasite or virus in culture. The note with it: Human immunodeficiency virus 1.
The test system of a further data set is HIV-1TC-1. In words: microbe, parasite or virus in culture. To be noted: Human immunodeficiency virus 1.
For data set [5] the following is noted: for safety at high dose: high dose (10 g/kg); for acute toxicity test finding: in vivo.
A further data set concerns HIV-2 ROD. The data set is described as follows: Activity for HIV-2 ROD. The note with it: for EC50: Human immunodeficiency virus 2.
The nature of data set [6]: Activity for HIV-2 CBL-20.
A further data set concerns HIV-2 CBL-20. In words: Activity for HIV-2 CBL-20. To be noted: for EC50: Human immunodeficiency virus 2.
In another data set the test system is H9 cells. The data set is described as follows: Cytotoxicity (CC50) in H9 cells. The class given is cell-based, human.
The nature of data set [7]: Solubility in aqueous solution. It counts as physicochemical. The note with it: aqueous buffer; in water with pH=7. From the text: Solubility is an important parameter of druggability. […] They are with good solubility and can be formulated into an oral formulation. The prodrugs can be hydrolyzed into 46 which is with good fat-solubility and TI as well as distribution.

The nature of data set [8]: Stability (degradation) in solutions of different pH. The class given is physicochemical. The method, then:
For example, compound 67 was tested in solutions with PH=4.004, 6.864 and 9.182, and its degradation rate was […]. […] As to the Mechanism of action of the compounds, the possible binding mode between 46 and vif was predicted by docking There are five possible hydrogen bonds between them: two hydrogen bonds between the nitro group and Arg79 and Lys178, two hydrogen bonds between the oxygen atom of methoxyl group with His141 and Arg97, one hydrogen bond between the nitrogen atom of pyridine with Gly103. (The binding mode can be seen in FIG. 4)

Converted amounts (≈) assume the structure as drawn. Where only a bound is given, the exact number is not on record here.

Regarding `COc1ccccc1NC(=O)c1c(N)cccc1S(=O)(=O)c1ccc([N+](=O)[O-])cc1` [Compound 46, 2-amino-N-(2-methoxyphenyl)-6-((4-nitroph-enyl)sulfonyl)benzamide], the CC50 in data set [1] was 141 µg/mL (≈ 329 µM); in [3] it was greater than 200 µg/mL; in the data set “Activity for HIV-2 ROD” it was greater than 200 µg/mL; in data set [6] it was greater than 200 µg/mL. Moreover, the EC50 with HIV-1IIIB [2] was found to be 0.096 µg/mL (≈ 0.225 µM); in the data set with HIV-1IIIB [4] (Human immunodeficiency virus 1, HIV-1IIIB, read-out: EC50) it was 0.66 µg/mL (≈ 1.54 µM); in the data set on HIV-1A17, 18.7 µg/mL (≈ 43.8 µM); in the data set with HIVKM018 it was 6.23 µg/mL (≈ 14.6 µM); in the data set with HIV-1TC-1, 0.11 µg/mL (≈ 0.257 µM); in the data set with HIV-2 ROD it was 0.41 µg/mL (≈ 0.959 µM). The molecule further registered an EC50 with HIV-2 CBL-20 of 0.45 µg/mL (≈ 1.05 µM). Besides, the “safety at high dose” value in data set [5] is on record as “very safe”. Moreover, in data set [5], the “acute toxicity test finding” value was “no abnormal phenomenon occurred”. The values for the TI in the data set with HIV-2 ROD (HIV-2 ROD) and in the data set on HIV-2 CBL-20 (HIV-2 CBL-20) were 487.8 and 444.44, respectively.

In the data set on H9 cells, `COc1ccccc1NC(=O)c1c(N)cccc1Oc1ccc([N+](=O)[O-])cc1` [Compound 48, 2-amino-N-(2-methoxyphenyl)-6-(4-nitrop-henoxy)benzamide] showed a CC50 of 76.60 µg/mL (≈ 202 µM). Also, the TI with HIV-1IIIB [4] (CC50/EC50) is listed as 2.14.

For the molecule `COc1ccccc1NC(=O)c1c(NC(=O)CN)cccc1S(=O)(=O)c1ccc([N+](=O)[O-])cc1.Cl` [Compound 67, 2-(2-aminoacetamido)-N-(2-methoxyphenyl)-6-((4-nitrophenyl)sulfonyl)benzamide hydrochloride hydrochloride], the CC50 in [1] amounted to 165 µg/mL; in data set [3] (H9 cells), 94.9 µg/mL; in “Activity for HIV-2 ROD”, 126 µg/mL; in data set [6], 106 µg/mL. The molecule further came in with a solubility in [7] of 1730 µg/mL. The degradation rate was 0.2767 in data set [8] (solution PH=4.004), 0.4956 in [8] (solution PH=6.864) and 9.182 in data set [8] (solution PH=9.182). In addition, in data set [5], the “safety at high dose” value is “very safe”. The “acute toxicity test finding” value in data set [5] is “no abnormal phenomenon occurred”. The figures for the half-maximal effective concentration (EC50) in the data set on HIV-2 ROD and in the data set on HIV-2 CBL-20 were 0.78 µg/mL and 1.21 µg/mL, respectively.

What is called EC50 is the concentration at which the effect is half-maximal. For orientation: solubility means how much of the substance goes into solution per volume. Read a low solubility as little dissolved substance.

For the origin of these results see patent US9402819B2, “Anti-HIV compound and preparation method and use thereof” (Sichuan University, priority 2012, dated 2016).
